The target of test [1] is T1, Muscarinic acetylcholine receptor M4 (Homo sapiens, UniProt P08173).
T1 sequence (P08173 whole entry): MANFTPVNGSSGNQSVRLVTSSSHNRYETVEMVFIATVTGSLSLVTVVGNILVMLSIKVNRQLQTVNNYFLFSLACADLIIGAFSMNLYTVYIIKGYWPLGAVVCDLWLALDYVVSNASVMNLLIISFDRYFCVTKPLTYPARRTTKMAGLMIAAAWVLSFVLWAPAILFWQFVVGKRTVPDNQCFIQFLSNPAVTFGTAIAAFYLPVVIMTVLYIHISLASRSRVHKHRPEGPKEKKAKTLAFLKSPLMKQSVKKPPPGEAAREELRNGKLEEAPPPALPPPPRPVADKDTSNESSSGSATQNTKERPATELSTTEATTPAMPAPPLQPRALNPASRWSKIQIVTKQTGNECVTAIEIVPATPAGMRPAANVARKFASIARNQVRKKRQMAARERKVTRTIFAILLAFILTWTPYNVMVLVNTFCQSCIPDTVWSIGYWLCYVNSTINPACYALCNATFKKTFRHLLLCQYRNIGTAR
The test can be described thus: Displacement of QNB from muscarinic M4 receptor.

Test [2] addresses T2, Muscarinic acetylcholine receptor M1 (Homo sapiens, UniProt P11229).
T2 sequence (P11229 whole entry): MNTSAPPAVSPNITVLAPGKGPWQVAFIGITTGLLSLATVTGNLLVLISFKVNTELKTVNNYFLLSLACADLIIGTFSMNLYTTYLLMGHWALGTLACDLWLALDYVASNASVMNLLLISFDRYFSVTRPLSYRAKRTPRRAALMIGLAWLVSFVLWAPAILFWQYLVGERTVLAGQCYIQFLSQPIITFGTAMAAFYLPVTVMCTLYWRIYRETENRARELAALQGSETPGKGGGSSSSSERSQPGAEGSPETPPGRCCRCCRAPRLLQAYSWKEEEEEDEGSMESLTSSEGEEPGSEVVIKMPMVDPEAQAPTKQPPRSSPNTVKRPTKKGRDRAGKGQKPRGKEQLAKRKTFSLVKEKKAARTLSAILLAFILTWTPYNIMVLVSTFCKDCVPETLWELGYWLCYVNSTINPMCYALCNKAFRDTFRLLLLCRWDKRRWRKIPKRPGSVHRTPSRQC
As to the kind of experiment: Displacement of QNB from muscarinic M1 receptor.

Test [3] has as its target T3, Muscarinic acetylcholine receptor M2 (Homo sapiens, UniProt P08172).
T3 sequence (P08172 whole entry): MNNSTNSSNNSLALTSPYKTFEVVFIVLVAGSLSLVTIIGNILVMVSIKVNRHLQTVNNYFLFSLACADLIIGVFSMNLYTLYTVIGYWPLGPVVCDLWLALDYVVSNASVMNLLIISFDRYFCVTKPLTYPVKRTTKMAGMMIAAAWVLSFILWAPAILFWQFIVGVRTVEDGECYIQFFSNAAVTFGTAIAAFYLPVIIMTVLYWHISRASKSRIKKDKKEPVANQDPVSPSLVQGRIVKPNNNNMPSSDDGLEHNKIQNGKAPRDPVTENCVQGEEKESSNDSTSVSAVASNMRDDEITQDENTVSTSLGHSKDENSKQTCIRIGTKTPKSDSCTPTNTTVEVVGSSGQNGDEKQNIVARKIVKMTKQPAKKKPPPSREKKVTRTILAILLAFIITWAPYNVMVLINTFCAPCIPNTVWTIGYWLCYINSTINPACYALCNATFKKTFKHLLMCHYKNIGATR
The test can be described thus: Displacement of QNB from muscarinic M2 receptor.

For the compound `NC(N)=NCCCCCCCCC(=O)C(N)CCCN=C(N)N` (stereo unspecified), the IC50 (commonly the concentration at which inhibition is half-maximal) in test [1] came to 10 nM; in test [2], 7 nM; in test [3], 6 nM.
Turning to `CC(=O)NC(CCCNC(=N)N)C(=O)CCCCCCCCNC(=N)N` (stereo unspecified), the IC50 turned out to be 910 nM in test [1], 1410 nM in test [2] and 960 nM in test [3].

The values above are taken from ChEMBL document CHEMBL1159254, “Isolation and structure of two novel muscarinic receptor antagonists” (J Nat Prod, 1995).
